This is an account of results in article PMC4885109, “Rapid Discovery and Structure–Activity Relationships of Pyrazolopyrimidines That Potently Suppress Breast Cancer Cell Growth via SRC Kinase Inhibition with Exceptional Selectivity over ABL Kinase” (Journal of Medicinal Chemistry, 2016).

Series [1] has as its system MCF7 cells. As to the kind of experiment: Dose-response viability assay (PrestoBlue), MCF7. The class given is cell-based. The settings on record: Homo sapiens, MCF7, 120 h; 5 d, PrestoBlue cell viability.
Series [2] relates to MCF7 cells. As to the kind of experiment: Time-lapse cell growth assay (IncuCyte ZOOM). The class given is cell-based, human. To be noted: for antiproliferative mode of action by time-lapse imaging: 1–100 μM.
The target of the next series is BLK (Homo sapiens, UniProt P51451). The series is described as follows: biochemical.
A further series addresses HCK (Homo sapiens, UniProt P08631). The series is described as follows: biochemical.
A further series concerns the target LCK (Homo sapiens, UniProt P06239). As to the kind of experiment: Kinase screening assay, 33P radioisotope (Reaction Biology). The class given is biochemical. The settings on record: recombinant kinase, 10 μM ATP.
For another series, the target named is FRK/PTK5 (Homo sapiens, UniProt P42685). The series is described as follows: biochemical.
A further series addresses LYN (Homo sapiens, UniProt P07948). The series is described as follows: biochemical.
Another series concerns the target FGR (Homo sapiens, UniProt P09769). As to the kind of experiment: Kinase screening assay, 33P radioisotope (Reaction Biology). Format: biochemical.
Series [3] has as its system phospho-SRC^Y416 and phospho-FAK in MDA-MB-231 cells.
For series [4], the system named is MCF7 cells.
The next series deals with CYP3A4 (Homo sapiens, UniProt P08684). The settings on record: 10 μM.
The target of the next series is CYP2C9 (Homo sapiens, UniProt P11712). The settings on record: 10 μM.
A further series concerns the target CYP2D6 (Homo sapiens, UniProt P10635). To be noted: 10 μM.
The nature of the next series: in vivo. To be noted: female, CD1, mouse, blood/plasma, 10 mg/kg.
The nature of the next series: physchem. The settings on record: pH 7.4.
The nature of series [5]: in vitro. To be noted: human, cryopreserved pooled primary hepatocytes.
Series [6] is described as follows: in vitro. To be noted: mouse, cryopreserved pooled primary hepatocytes.
The next series deals with T1, CYP1A2 (Homo sapiens, UniProt P05177).
T1 sequence (P05177 1-516): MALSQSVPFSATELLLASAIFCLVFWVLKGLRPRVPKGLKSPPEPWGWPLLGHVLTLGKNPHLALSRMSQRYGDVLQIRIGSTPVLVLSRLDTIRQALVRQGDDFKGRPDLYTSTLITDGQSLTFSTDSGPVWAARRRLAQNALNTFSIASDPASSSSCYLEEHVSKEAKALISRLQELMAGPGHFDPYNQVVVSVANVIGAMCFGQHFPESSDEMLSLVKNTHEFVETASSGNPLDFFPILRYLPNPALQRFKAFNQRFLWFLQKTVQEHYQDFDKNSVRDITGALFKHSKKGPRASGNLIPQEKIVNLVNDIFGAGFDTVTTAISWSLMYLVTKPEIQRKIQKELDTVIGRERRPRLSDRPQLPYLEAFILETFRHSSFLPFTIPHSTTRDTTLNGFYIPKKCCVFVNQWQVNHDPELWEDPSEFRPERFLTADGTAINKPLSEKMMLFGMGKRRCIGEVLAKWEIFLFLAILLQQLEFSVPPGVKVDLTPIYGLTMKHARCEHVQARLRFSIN
The settings on record: 10 μM.

The target in a further series is CYP2C19 (Homo sapiens, UniProt P33261). The settings on record: 10 μM.
The subject of series [7] is SYF murine embryonic fibroblasts (SRC-/-, YES-/-, FYN-/-). The series is described as follows: Dose-response proliferation study in SYF cells. The settings on record: compared with dasatinib. The class given is cell-based, mouse.
In the next series the target is ABL (Homo sapiens, UniProt P00519). As to the kind of experiment: Kinase screening assay, 33P radioisotope (Reaction Biology).
Series [8] relates to MDA-MB-231 cells. The series is described as follows: Dose-response viability assay (PrestoBlue), MDA-MB-231. The class given is cell-based, human. To be noted: for decrease in antiproliferative activity relative to 11a: MDA-MB-231.
In another series the target is SRC (Homo sapiens, UniProt P12931). The series is described as follows: Kinase screening assay, 33P radioisotope (Reaction Biology).
The conditions of series [9]: human, rat, 24 h.
Series [10] concerns Tg(brn3c:mGFP) zebrafish embryos. Format: in vivo. The settings on record: 1–10 μM (compatible with embryo survival).
Series [11] deals with MDA-MB-231 cells. The series is described as follows: cells. To be noted: Homo sapiens, MDA-MB-231, 24 h, read-out: IC50, MDA-MB-231 Cell Migration After 24h.
For series [12] the following is noted: cited from earlier work.
The conditions of series [13]: cited from earlier work; for % F / Cmax / Tmax: PO.
[14] abbreviates: recombinant kinase, 10 μM ATP, read-out: IC50 (FGR).
The mark [15] stands for this setting: 5 mg/kg ref Kamath et al., 2008.

Structures are written as SMILES. pEC50, pIC50: −log10 of the molar value. Where two headings read alike, the source gives them in different places.

Sequence of LCK (P06239 whole entry): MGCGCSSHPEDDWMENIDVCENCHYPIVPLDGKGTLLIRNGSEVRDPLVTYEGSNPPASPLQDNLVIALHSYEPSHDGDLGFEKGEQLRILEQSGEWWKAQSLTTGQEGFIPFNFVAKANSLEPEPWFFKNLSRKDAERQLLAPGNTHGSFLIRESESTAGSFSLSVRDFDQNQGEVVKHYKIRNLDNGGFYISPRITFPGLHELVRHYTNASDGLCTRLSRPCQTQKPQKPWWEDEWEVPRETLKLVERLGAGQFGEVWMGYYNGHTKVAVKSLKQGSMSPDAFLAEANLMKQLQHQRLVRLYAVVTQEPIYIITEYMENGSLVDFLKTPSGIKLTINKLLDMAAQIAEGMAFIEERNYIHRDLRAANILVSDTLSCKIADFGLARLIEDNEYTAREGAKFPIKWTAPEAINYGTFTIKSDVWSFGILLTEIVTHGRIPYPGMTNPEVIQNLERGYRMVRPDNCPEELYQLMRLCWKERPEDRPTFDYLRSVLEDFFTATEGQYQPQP
Sequence of HCK (P08631 whole entry): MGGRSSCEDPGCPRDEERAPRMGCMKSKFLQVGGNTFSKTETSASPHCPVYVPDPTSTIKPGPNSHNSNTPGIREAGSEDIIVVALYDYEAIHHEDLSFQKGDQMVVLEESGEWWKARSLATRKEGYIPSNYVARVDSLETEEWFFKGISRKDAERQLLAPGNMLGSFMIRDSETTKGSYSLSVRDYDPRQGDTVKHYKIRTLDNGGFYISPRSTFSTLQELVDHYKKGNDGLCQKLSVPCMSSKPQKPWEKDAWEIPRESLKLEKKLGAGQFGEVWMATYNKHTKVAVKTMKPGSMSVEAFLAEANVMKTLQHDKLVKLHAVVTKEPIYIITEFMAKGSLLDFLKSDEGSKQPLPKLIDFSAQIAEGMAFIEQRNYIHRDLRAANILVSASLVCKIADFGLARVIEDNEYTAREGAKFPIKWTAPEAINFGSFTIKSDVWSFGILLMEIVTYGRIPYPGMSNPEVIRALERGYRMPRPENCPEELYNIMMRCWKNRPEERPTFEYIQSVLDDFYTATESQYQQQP
Sequence of LYN (P07948 whole entry): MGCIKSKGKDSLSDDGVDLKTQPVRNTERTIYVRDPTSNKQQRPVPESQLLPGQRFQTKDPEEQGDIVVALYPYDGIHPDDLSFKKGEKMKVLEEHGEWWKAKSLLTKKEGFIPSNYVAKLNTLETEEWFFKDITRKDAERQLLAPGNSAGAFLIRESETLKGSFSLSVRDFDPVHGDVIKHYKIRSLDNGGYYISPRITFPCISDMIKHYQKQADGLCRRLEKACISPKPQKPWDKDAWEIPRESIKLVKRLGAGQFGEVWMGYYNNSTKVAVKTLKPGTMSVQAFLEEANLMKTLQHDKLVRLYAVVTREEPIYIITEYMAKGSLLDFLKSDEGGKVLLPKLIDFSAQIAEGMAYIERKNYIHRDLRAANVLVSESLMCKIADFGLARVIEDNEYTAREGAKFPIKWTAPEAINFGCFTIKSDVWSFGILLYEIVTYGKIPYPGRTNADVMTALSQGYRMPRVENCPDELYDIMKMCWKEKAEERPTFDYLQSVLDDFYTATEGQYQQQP
Sequence of FGR (P09769 whole entry): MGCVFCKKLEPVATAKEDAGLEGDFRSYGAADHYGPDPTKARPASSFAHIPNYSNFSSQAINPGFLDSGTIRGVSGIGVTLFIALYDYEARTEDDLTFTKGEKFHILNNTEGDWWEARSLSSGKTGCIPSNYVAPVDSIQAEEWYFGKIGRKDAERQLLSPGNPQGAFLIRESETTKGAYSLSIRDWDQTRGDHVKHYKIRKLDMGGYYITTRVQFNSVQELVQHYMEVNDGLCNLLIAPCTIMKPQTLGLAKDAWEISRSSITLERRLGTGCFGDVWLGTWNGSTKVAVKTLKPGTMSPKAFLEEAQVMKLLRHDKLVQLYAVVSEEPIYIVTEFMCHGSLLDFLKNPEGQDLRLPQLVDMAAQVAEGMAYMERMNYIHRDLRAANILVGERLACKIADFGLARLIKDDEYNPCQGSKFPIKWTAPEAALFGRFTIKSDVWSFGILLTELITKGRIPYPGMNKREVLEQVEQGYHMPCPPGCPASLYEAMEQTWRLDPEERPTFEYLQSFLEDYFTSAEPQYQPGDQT
Sequence of FRK/PTK5 (P42685 whole entry): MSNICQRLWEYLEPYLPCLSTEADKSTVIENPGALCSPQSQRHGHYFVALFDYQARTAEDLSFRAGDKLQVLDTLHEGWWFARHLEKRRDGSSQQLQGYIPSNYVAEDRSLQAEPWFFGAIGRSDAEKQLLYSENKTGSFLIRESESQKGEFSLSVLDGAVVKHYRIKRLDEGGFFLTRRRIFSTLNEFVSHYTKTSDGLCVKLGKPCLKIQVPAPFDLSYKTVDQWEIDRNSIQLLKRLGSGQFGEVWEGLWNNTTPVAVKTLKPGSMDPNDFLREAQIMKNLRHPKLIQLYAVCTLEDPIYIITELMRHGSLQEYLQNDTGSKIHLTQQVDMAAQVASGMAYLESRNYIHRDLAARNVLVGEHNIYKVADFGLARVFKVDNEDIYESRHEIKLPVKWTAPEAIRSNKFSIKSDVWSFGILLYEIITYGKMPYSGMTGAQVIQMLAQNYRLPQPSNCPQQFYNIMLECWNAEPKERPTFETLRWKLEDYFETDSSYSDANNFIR
Sequence of BLK (P51451 whole entry): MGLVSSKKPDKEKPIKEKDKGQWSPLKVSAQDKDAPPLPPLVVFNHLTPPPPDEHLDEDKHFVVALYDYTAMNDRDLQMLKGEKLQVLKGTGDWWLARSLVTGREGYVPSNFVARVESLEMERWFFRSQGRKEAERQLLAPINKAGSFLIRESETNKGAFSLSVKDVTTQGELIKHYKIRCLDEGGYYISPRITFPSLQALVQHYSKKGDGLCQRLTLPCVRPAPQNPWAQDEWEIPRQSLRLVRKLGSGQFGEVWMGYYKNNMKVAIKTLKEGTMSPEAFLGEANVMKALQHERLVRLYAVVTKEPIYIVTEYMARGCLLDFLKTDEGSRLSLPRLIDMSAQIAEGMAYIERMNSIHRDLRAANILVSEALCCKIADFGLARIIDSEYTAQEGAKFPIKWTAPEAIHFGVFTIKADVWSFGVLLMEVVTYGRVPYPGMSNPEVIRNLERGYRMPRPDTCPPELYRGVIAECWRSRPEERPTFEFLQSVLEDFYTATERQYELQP
Sequence of CYP2C19 (P33261 whole entry): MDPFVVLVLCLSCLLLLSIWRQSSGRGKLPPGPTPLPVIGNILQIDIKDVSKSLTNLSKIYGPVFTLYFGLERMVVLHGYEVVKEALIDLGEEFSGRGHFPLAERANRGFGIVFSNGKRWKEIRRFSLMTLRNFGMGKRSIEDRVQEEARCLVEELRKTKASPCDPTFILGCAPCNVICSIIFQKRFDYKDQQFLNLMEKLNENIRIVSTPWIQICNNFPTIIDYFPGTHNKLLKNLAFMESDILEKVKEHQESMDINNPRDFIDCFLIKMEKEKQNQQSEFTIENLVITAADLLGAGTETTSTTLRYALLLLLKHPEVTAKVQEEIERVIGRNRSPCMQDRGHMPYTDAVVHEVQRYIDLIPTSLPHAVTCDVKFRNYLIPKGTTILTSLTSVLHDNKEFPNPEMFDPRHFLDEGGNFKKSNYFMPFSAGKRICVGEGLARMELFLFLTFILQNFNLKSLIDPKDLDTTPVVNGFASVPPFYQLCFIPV
Sequence of CYP2C9 (P11712 whole entry): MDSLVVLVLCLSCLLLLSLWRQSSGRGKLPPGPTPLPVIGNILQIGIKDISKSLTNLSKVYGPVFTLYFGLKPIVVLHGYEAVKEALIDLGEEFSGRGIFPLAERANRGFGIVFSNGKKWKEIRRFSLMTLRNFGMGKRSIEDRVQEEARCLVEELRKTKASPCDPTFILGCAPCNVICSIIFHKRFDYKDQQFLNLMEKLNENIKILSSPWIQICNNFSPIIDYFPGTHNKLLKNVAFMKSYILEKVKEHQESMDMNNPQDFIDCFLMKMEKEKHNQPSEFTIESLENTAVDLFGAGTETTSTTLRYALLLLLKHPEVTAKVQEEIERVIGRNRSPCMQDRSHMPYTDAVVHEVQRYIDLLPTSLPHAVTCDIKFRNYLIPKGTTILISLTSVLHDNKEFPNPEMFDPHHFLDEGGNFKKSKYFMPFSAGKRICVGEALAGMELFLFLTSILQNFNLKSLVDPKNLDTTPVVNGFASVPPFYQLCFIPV
Sequence of CYP2D6 (P10635 whole entry): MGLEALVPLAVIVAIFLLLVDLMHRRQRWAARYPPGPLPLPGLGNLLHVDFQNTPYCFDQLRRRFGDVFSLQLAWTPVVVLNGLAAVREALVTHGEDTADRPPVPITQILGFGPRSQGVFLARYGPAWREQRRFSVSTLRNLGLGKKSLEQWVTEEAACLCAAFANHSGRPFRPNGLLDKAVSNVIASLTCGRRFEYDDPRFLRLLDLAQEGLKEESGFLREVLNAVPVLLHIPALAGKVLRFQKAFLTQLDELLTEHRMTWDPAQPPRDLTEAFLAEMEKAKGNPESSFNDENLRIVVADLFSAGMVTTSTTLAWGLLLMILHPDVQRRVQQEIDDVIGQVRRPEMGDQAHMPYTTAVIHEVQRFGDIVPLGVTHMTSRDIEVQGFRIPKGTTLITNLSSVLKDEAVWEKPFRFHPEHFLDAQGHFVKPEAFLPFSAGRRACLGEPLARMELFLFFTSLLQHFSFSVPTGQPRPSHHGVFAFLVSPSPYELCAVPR

On to `Cc1ccc(-c2nn(CCN3CCCCC3)c3ncnc(N)c23)cc1` [7a], for which, in the series on MCF7 cells [1], the pEC50 was 4.31.

Take `Cc1ccc(-c2nn(CCN3CCN(C)CC3)c3ncnc(N)c23)cc1` [7d]: in the series on MCF7 cells [2] (single dose 100 μM, 5 d, time-lapse imaging), the “cell proliferation (% confluence over time)” value is listed as “strong inhibition of cell proliferation”.

As to `Cc1ccc(-c2nn(CCN3CCC(N(C)C)CC3)c3ncnc(N)c23)cc1` [7i], the pIC50 on BLK was 5.81; against HCK, 5.82.

In the case of `Cc1ccc(-c2nn(CCN3CCC(CN(C)C)CC3)c3ncnc(N)c23)cc1` [7j], the pIC50 is 5.81 at LCK; 5.55 on BLK; 5.79 against FRK/PTK5; 5.22 against HCK; 5.97 at LYN.

As for `Cc1ccc(-c2nn(CCN3CCC(CCN(C)C)CC3)c3ncnc(N)c23)cc1` [7k], the pIC50 at FGR (setting [14]) was 6.22; on LCK it was 5.36; against FRK/PTK5 it was 5.43; on HCK, 4.93; against LYN it was 5.60.

With `CCOC(Cn1nc(-c2cnc3[nH]ccc3c2)c2c(N)ncnc21)OCC` [8d, 1-(2,2-Diethoxyethyl)-3-(1H-pyrrolo[2,3-b]pyridin-5-yl)pyrazolo[3,4-d]pyrimidin-4-amine], in the series on MCF7 cells [2], the “antiproliferative mode of action by time-lapse imaging” value is given as “halted cell division”. Moreover, the pIC50 on FGR (setting [14]) is 5.67; at LCK, 5.07; on FRK/PTK5 it was 5.57; on HCK, 5.17; on LYN, 5.64.

Turning to `CN(C)CC1CCN(CCn2nc(-c3cnc4[nH]ccc4c3)c3c(N)ncnc32)CC1` [9d, 1-[2-[4-(Dimethylaminomethyl)-1-piperidyl]ethyl]-3-(1H-pyrrolo[2,3-b]pyridin-5-yl)pyrazolo[3,4-d]pyrimidin-4-amine], the “antiproliferative mode of action by time-lapse imaging” value in the series with MCF7 cells [2] is on record as “induced cell death”.

With `COc1cc(-c2nn(CCN3CCC(N(C)C)CC3)c3ncnc(N)c23)ccc1NC(=O)OC(C)(C)C` [11a, tert-Butyl N-[4-[4-amino-1-[2-[4-(dimethylamino)-1-piperidyl]ethyl]pyrazolo[3,4-d]pyrimidin-3-yl]-2-methoxy-phenyl]carbamate], the “concentration with complete inhibition of phosphorylation of SRC and FAK” value in series [3] is reported as 100 nM. Further, the “concentration giving significant apoptotic cell death (caspase 3/7 activity)” value with MCF7 cells [4] is at least 100 nM. For the same compound, on CYP3A4, the “inhibition of CYP3A4” value is reported as at most 0%. In addition, on CYP2C9, the “inhibition of CYP2C9” value was at most 0%. Also, the “inhibition of CYP2D6” value against CYP2D6 is at most 0%. Moreover, in “in vivo” (iv), the exposure (AUC) came out at 2070 ng·h/mL and the clearance is 72.3 mL/min/kg. Further, in “in vivo” (po), the AUC turned out to be 530 ng·h/mL, the maximum concentration (Cmax) was 100 ng/mL and the time to peak (Tmax) stood at 2 h. Moreover, the solubility in “physchem” is over 100 mg/mL. In “in vitro [5]”, the intrinsic metabolic clearance (hepatocyte CLint) at 3 µM was 1.84 µL/min/1e6 cells. In “in vitro [6]”, this compound came in with a half-life at 3 µM of 1.83 h and a hepatocyte CLint at 3 µM of 12.5 µL/min/1e6 cells. For the same compound, the “inhibition of CYP1A2” value at CYP1A2 stood at 24.54%. The “inhibition of CYP2C19” value at CYP2C19 is at most 0%.

For `COc1cc(-c2nn(CCN3CCC(CN(C)C)CC3)c3ncnc(N)c23)ccc1NC(=O)OC(C)(C)C` [11b], the “antiproliferative activity in SYF cells” value in series [7] was “significantly less antiproliferative activity in SYF cells than dasatinib”. At ABL, this compound showed a pIC50 of 6.72.

Turning to `COc1cc(-c2ccn(CCN3CCC(N(C)C)CC3)n2)ccc1NC(=O)OC(C)(C)C` [12f], the “decrease in antiproliferative activity relative to 11a” value with MDA-MB-231 cells [8] is on record as over 3000 fold.

The compound `COc1cc(-c2nn(CCN3CCC(N(C)C)CC3)c3ncnc(N)c23)ccc1N` [12g] had a negative-log EC50 (pEC50) with MCF7 cells [1] of 5.31.

Compound `COc1cc(-c2nn(CCN3CCC(N(C)C)CC3)c3ncnc(N)c23)ccc1NC(=O)CCc1ccccc1` [12k, N-[4-[4-amino-1-[2-[4-(dimethylamino)-1-piperidyl]ethyl]pyrazolo[3,4-d]pyrimidin-3-yl]-2-methoxy-phenyl]-3-phenyl-propanamide] had a negative logarithm of the EC50 (pEC50) with MCF7 cells [1] of 5.15.

With `CN(C)C1CCN(CCn2nc(-c3ccc(NC(=O)OC(C)(C)C)c(O)c3)c3c(N)ncnc32)CC1` [12s], in the series on MDA-MB-231 cells [8], the “decrease in antiproliferative activity relative to 11a” value was over 200 fold. In addition, the “decrease in SRC inhibitory activity relative to 11a” value on SRC is on record as over 200 fold.

For `CN(C)C1CCN(CCn2nc(-c3ccc(NC(=O)OC(C)(C)C)nc3)c3c(N)ncnc32)CC1` [12u], the negative logarithm of the EC50 (pEC50) in the series with MDA-MB-231 cells [8] (read-out: EC50 (MDA-MB-231), 5 d, PrestoBlue cell viability) was 4.78.

On to `Cc1ccc(-c2nn(C(C)(C)C)c3ncnc(N)c23)cc1` [PP1, reference compound], for which the pIC50 against FGR was 8.12.

For the compound `CC(=O)CC(c1ccccc1)c1c(O)c2ccccc2oc1=O` (stereo not drawn) [Warfarin], the plasma protein bound in [9] is listed as 99–100%.

Turning to `Cc1nc(Nc2ncc(C(=O)Nc3c(C)cccc3Cl)s2)cc(N2CCN(CCO)CC2)n1.O` [dasatinib], the neuromast migration entry in [10] is listed as “did not inhibit the migration of neuromasts”. Also, the pIC50 in the series with MDA-MB-231 cells [11] is 8.08. Also, the values for the solubility in water in series [12] (pH = 2.6 ref 56) and in series [12] (pH = 7 ref 56) were 18 mg/mL and under 0.001 mg/mL, respectively. Moreover, the T1/2 in series [13] (IV, 10 mg/kg, mice ref Kamath et al., 2008 (58)) is 0.9 h. Moreover, the CL in [13] (IV, 10 mg/kg, mice ref Kamath et al., 2008) is 61.7 mL/min/kg. Moreover, the “% F” value is 17% in series [13] (setting [15]) and 45% in series [13] (5 mg/kg ref Luo et al., 2006). Besides, the Cmax in series [13] (setting [15]) is 104 ng/mL; in series [13] (5 mg/kg ref Luo et al., 2006), 58 ng/mL. The Tmax was 2 h in [13] (setting [15]) and 1 h in [13] (5 mg/kg ref Luo et al., 2006).

For the compound `O=c1ccc2ccc(O)cc2o1` [umbelliferone, reference compound], the half-life at 3 µM in the series “in vitro [5]” is 9.7 min; in “in vitro [6]”, 0.0233 h. In addition, the intrinsic clearance (hepatocyte CLint) at 3 µM in “in vitro [5]” worked out at 150 µL/min/1e6 cells; in the series “in vitro [6]”, 983 µL/min/1e6 cells.
